US20200199647A1, “ASSAY FOR SCREENING MODULATORS OF HOLOPHOSPHATASE ACTIVITY” (UNITED KINGDOM RESEARCH AND INNOVATION, priority 2017, published 2020)

How the values were obtained:
R15B-PP1c = target: T1, R15B-PP1c (Homo sapiens, UniProt Q5SWA1); assay: In vitro dephosphorylation of P-eIF2α by recombinant R15B-PP1c holophosphatase (10 nM PP1c); format: biochemical; details: PP1c 10 nM, 1 μM P-eIF2α, compounds 100 μM, 30° C., 16 h
T1 construct: PPP1R15B amino acids 340-698 (R15B); His6 (C); made in house; host or cells: E. coli BL21 pLysS (R15B, eIF2α); E. coli BL21/pGro7 (PP1c)
Description: (§1) PP1c was diluted to the appropriate concentration (as indicated in the figure legends) in dephosphorylation buffer immediately prior to use. Dephosphorylation reactions were carried out by pre-incubating diluted PP1c in the presence or absence of regulatory subunits (either […]), and/or compounds (all at 100 μM, except for Salubrinal which was used at 30 μM), for 15′ at RT. All compounds were diluted in DMSO, and DMSO vehicle was used in all control experiments.
The reaction was initiated by the addition of 1 μM P-eIF2α or ^33P Phosphorylase a substrates and then incubated at 30° C. for 16 h with shaking at 350 rpm. Reactions were stopped by addition of 4× Laemmli sample buffer. eIF2α samples were analyzed by immunoblotting or Phos-tag gels. P-eIF2α dephosphorylation was analysed by immunoblotting using anti-Phospho-eIF2α (SerS1) (#9721) (Cell Signaling) and anti-eIF2α (ab26197) (AbCam) antibodies. Samples in FIG. 8 and FIG. 16 were run on a 15% SuperSep Phos-tag acrylamide gel (Alpha Laboratories) and visualized by staining with InstantBlue Protein Stain.

R15A^N/R15B^C = target: T2, R15A^N/R15B^C (Homo sapiens, UniProt O75807+Q5SWA1); assay: Dephosphorylation of P-eIF2α by chimeric holophosphatase PP1c-R15A^N/R15B^C; format: biochemical; details: PP1c 10 nM, compounds 100 μM, 30° C., 16 h
T2 construct: PPP1R15A amino acids 325-636 (R15A), 325-512 (R15A^N), and 513-636 (R15A^C); PPP1R15B amino acids 340-698 (R15B), 340-635 (R15B^N), and 636-698 (R15B^C); R15B^C (PPP1R15B amino acids 636-698); His6 (C); made in house; host or cells: E. coli BL21 pLysS (chimera, eIF2α); E. coli BL21/pGro7 (PP1c)
Source text: The cDNA encoding human PPP1R15A, PPP1R15B and PPP1R3A regulatory subunits were cloned into a pMAL-c5×-His vector, encoding for an amino-terminal MBP-tag and a carboxy-terminal His6-tag. […] R15A^N/R15B^C Chimeras were obtained by swapping the amino-terminal regions (R15^N) of R15A and R15B proteins described above, whilst maintaining the same carboxy-terminal regions (R15^C), to produce R15B^N/R15A^C and […] chimeras respectively, using In-Fusion cloning (Takara). All regulatory subunits were expressed in BL21 pLysS cells in Luria broth (LB) at 30° C. overnight. […] R15 proteins were stored at −80° C. and used within one month.
as §1
The reaction was initiated by the addition of 1 μM P-eIF2α or ^33P Phosphorylase a substrates and then incubated at 30° C. for 16 h with shaking at 350 rpm. Reactions were stopped by addition of 4× Laemmli sample buffer. eIF2α samples were analyzed by immunoblotting or Phos-tag gels. […]

R15B = target: T3, R15B (Homo sapiens, UniProt Q5SWA1); assay: Pull-down: binding of P-eIF2α to MBP-tagged R15B on amylose beads; details: 200 μM compound, 200 nM MBP-R15B, 1 μM P-eIF2α, 10 min 4° C.
T3 construct: PPP1R15B amino acids 340-698 (R15B); His6 (C); made in house; host or cells: E. coli BL21 pLysS
T3 sequence (Q5SWA1 340-698): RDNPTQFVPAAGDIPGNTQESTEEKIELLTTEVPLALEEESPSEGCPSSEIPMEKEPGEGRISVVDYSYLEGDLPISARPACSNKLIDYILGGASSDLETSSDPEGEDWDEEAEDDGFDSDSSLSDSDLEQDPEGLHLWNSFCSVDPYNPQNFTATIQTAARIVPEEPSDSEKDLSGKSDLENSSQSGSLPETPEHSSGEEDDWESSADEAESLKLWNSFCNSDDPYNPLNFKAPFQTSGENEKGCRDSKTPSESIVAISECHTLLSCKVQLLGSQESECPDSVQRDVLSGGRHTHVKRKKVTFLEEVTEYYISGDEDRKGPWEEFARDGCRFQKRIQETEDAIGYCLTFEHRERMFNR
Description: Purified MBP-tagged regulatory subunits (200 nM), P-eIF2α (1 μM), PP1c ([…]), and 200 μM compounds, or DMSO vehicle, were added as appropriate to 20 μl amylose magnetic bead, pre-equilibrated with interaction buffer (50 mM Tris (pH 7.4), 200 mM NaCl, 0.05% Tween20) in 200 μl volume. All protein dilutions were carried out in interaction buffer. 5% input sample was removed, and added to 4× Laemmli sample buffer for later analysis. The beads were incubated for 10′ at 4° C. The supernatant was removed, and the beads were washed thoroughly with interaction buffer and then resuspended with 50 μl of 2× Laemmli sample buffer. Samples were run on 4-12% NuPAGE Bis-Tris gels (Life Technologies) and analysed by immunoblotting, using anti-MBP HRP (E8038) (NEB), anti-eIF2α (ab26197) (AbCam) or anti-PPP1A (ab137512) (AbCam) antibodies.

R15A = target: T4, R15A (Homo sapiens, UniProt O75807); assay: Limited trypsin proteolysis of R15A (conformational change); details: 22° C.
T4 construct: PPP1R15A amino acids 325-636 (R15A); His6 (C); made in house; host or cells: E. coli BL21 pLysS
Description: Reactions were allowed to proceed at 22° C. with shaking at 350 rpm. At time points 30 min, 1 h, 2 h or 3 h, 30 μl of sample was removed from the mix and digestion was stopped by addition of 10 μl of 16% SDS Laemmli sample buffer. Samples were run on 4-12% NuPAGE Bis-Tris gels (Life Technologies). Proteins were visualised by staining with InstantBlue Coomassie Protein Stain (Expedeon) protein stain.
Purified R15A and R15B were diluted to 3 μM in PBS, and incubated for 15′ at RT with 100 μM Raphin1, or DMSO vehicle. Reactions were initiated by addition of 5 nM of trypsin from bovine pancreas (Sigma), made up in PBS, and allowed to proceed for 5′ at 22° C., with shaking at 350 rpm. Digestion was stopped by addition of 4× Laemmli sample buffer and samples were run on 4-12% NuPAGE Bis-Tris gels (Life Technologies). Proteins were visualised by staining with InstantBlue Protein Stain.

T2 sequence (O75807+Q5SWA1 fused, stated change not applied): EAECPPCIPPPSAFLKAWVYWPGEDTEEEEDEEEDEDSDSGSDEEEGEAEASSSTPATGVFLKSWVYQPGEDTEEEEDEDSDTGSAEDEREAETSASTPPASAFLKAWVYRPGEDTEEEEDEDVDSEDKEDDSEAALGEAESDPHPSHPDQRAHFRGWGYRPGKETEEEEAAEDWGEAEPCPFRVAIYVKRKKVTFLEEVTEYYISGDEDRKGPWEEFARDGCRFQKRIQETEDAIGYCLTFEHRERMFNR
T2 sequence (P62136 7-330 partner): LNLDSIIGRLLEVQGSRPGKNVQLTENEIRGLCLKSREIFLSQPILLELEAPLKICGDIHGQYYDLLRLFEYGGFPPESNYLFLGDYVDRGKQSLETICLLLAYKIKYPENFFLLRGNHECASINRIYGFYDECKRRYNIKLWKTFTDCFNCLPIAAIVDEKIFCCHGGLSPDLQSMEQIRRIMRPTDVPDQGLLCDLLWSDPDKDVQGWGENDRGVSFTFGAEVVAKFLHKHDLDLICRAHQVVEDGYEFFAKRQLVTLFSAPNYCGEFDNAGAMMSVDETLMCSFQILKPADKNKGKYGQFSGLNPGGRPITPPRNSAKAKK
T1 sequence (P62136 7-330 partner limits assumed, one chain of several): as the sequence (P62136 7-330 partner) above
T4 sequence (O75807 325-636, stated change not applied): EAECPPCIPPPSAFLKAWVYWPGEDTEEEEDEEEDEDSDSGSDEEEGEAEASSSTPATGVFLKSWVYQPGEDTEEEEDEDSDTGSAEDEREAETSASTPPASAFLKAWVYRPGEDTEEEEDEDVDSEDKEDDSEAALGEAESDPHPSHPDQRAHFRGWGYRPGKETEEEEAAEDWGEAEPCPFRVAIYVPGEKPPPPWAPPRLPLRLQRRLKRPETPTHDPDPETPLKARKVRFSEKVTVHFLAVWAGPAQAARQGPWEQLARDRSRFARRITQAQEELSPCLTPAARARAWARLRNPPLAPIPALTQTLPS

| Structure (SMILES) | inhibition of R15B-PP1c eIF2α holophosphatase (R15B-PP1c) | inhibition of R15A^N/R15B^C chimeric holophosphatase (R15A^N/R15B^C) | effect on binding of eIF2α to R15B (R15B) | sensitivity of R15A to trypsin proteolysis (R15A; 100 μM compound, 0.5 μM R15A, 2.5 nM trypsin, 30 min to 3 h) | trypsin sensitivity of R15A (R15A; 100 μM Raphin1, 3 μM R15A, 5 nM trypsin, 5 min) |
| --- | --- | --- | --- | --- | --- |
| N=C(N)N/N=C/c1c(Cl)cccc1Cl [Guanabenz] | not R15B-PP1c | inhibited | no such effect was observed | decreased the sensitivity of R15A to trypsin proteolysis |  |
| NC(N)=N/N=C/c1cccc(Cl)c1Cl [Raphin1] | selectively inhibited R15B-PP1c | not R15A^N/R15B^C | decreased the binding of eIF2α to R15B |  | had no effect on the trypsin sensitivity of R15A |
